Reference: patent US6610282B1, “Polymeric controlled release compositions” (Rohm and Haas Company, priority 1998, dated 2003)

Experiment: Release of 4,5-dichloro-2-octyl-3-isothiazolone from dry marine paint film in synthetic sea water
Assay type: physicochemical
Details: 14 Days in synthetic sea water; marine paint film with 5%wt active on glass slides, dried 6 days; HPLC of film extract
Protocol: The compositions of Example 1 were evaluated for the control of the release of biologically active molecules in a marine paint.
A blank paint, that is one that contained no biologically active molecules, was dosed with Samples 2-5. The amount of the samples added was such that the total amount of 4,5-dichloro-2-octyl-3-isothiazolone in the paint was 5%wt, based on the total weight of the dry paint film. A control paint was prepared by adding 4,5-dichloro-2-octyl-3-isothiazolone alone. Glass slides were painted with the treated paints as well as the control paint and allowed to dry in a hood for 6 days. The slides were then submerged in a tank of synthetic sea water. The slides were removed after 14 days and the paint film extracted. The extracts were analyzed by HPLC to determine the amount of 4,5-dichloro-2-octyl-3-isothiazolone remaining.

% of 4,5-Dichloro-2-n-octyl-3-isothiazolone Released: 29.0%
SMILES: CCCCCCCCn1sc(Cl)c(Cl)c1=O [Control, 4,5-dichloro-2-octyl-3-isothiazolone]
